Here are results for 15 compounds from US9963448B2, “Bicyclic inhibitors of PAD4” (Padlock Therapeutics, Inc., priority 2015, dated 2018).

Molecules are shown by their SMILES. Like-named read-outs stand apart in the source and are kept apart here. A value given as a limit tells only on which side of the number the result lay.

The target of one assay is hPAD4 (Homo sapiens, UniProt Q9UM07). In words: hPAD4 RFMS (RapidFire mass spectrometry) PAD4 inhibition assay.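 On hPAD4 RFMS pIC50: grade E means pIC50 at most 4 and F means pIC50 4.0 to 5.0.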 To be noted: hPAD4 enzyme, RFMS readout. In kind it is biochemical. On the procedure:
(§1) Compounds of the present invention were assayed as inhibitors of PAD4 using the assay protocol described below.
(§2) Compound stock solutions were stored at RT. […] Final assay conditions were as follows:
(§3) Total incubation time: 65 mins at 37° C.
(§4) Stop solution: 40 μl 5% TCA in ACN
(§5) The compound numbers correspond to the compound numbers in Table 1. […] The term pIC50=−log(IC50). […] “NA” stands for “not assayed.”

The target of the next assay is mPAD4 (Mus musculus, UniProt Q9Z183). In words: mPAD4 RFMS PAD4 inhibition assay.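 On mPAD4 RFMS pIC50: grade E means pIC50 at most 4 and F means pIC50 4.0 to 5.0.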 The class given is biochemical. To be noted: mPAD4, RFMS readout. On the procedure:
as §1, §2, §3, §4, §5

The mark [1] stands for this setting: pIC50=−log(IC50), read-out: hPAD4 RFMS pIC50 (converted).
[2] abbreviates: pIC50=−log(IC50), read-out: mPAD4 RFMS pIC50 (converted).

Chain of mPAD4 (Q9Z183 whole entry): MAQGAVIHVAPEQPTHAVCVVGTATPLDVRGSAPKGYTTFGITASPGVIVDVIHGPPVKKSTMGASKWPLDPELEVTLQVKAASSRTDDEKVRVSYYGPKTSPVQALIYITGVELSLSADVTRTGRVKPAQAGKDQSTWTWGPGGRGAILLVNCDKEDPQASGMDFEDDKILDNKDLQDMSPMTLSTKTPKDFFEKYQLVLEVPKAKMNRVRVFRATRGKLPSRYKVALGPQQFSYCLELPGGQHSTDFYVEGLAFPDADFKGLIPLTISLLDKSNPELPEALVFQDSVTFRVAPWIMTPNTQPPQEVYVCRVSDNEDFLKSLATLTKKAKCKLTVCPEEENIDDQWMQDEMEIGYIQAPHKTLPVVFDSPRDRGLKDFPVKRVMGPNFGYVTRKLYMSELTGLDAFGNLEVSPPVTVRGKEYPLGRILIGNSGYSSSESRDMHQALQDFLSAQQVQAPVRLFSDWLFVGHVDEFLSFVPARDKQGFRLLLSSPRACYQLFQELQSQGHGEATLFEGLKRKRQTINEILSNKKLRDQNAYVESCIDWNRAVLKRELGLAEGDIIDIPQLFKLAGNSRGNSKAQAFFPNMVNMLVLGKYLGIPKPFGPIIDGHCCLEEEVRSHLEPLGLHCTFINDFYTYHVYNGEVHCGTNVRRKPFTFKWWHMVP
Chain of hPAD4 (Q9UM07 whole entry): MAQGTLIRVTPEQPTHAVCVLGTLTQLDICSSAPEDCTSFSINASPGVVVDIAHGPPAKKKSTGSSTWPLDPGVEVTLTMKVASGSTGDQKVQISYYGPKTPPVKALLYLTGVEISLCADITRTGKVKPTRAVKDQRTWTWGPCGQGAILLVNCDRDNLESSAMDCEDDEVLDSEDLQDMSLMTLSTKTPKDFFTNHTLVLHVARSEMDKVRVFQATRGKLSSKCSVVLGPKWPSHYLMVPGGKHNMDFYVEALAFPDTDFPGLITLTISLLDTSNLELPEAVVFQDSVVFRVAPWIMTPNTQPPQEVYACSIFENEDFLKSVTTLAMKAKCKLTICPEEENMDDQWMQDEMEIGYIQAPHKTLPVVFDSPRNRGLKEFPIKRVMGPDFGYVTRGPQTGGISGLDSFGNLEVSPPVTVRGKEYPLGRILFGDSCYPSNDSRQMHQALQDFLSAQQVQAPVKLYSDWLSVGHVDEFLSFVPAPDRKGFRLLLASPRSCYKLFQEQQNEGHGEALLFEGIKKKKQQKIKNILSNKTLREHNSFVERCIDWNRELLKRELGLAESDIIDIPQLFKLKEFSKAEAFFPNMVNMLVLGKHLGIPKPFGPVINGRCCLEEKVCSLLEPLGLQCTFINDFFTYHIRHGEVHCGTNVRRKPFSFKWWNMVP

As to `CCn1c(-c2nc3cc(C(=O)N4C[C@H]5CC[C@@H]4[C@@H]5N)cc(OC)c3n2CC2CCOCC2)cc2cccnc21` [Compound I-173], the IC50 at hPAD4 (setting [1]) is under 1000 nM; at hPAD4 (read-out: hPAD4 RFMS IC50), under 1000 nM; at mPAD4 (setting [2]), 1000 to 10000 nM; on mPAD4 (read-out: mPAD4 RFMS IC50) it was 1000 to 5000 nM.

On to `CCn1c(-c2nc3cc(C(=O)N4CCC[C@@H](N)C4)cc(OC)c3n2CC2CCOCC2)cc2cccnc21` [Compound I-174], for which the IC50 at hPAD4 (setting [1]) is 1000 to 10000 nM; on hPAD4 (read-out: hPAD4 RFMS IC50) it was 1000 to 5000 nM; at mPAD4 (setting [2]), 1000 to 10000 nM; at mPAD4 (read-out: mPAD4 RFMS IC50), 1000 to 5000 nM.

Take `CCn1c(-c2nc3cc(C(=O)N4C[C@H]5CC[C@@H]4[C@@H]5N)cc(OC)c3n2CCOC)cc2cccnc21` [Compound I-175]: the IC50 was under 1000 nM at hPAD4 (setting [1]), under 1000 nM on hPAD4 (read-out: hPAD4 RFMS IC50), 1000 to 10000 nM at mPAD4 (setting [2]) and 1000 to 5000 nM on mPAD4 (read-out: mPAD4 RFMS IC50).

With `CCn1c(-c2nc3cc(C(=O)N4CCC[C@@H](N)C4)cc(OC)c3n2CCOC)cc2cccnc21` [Compound I-176], the IC50 at hPAD4 (setting [1]) was 1000 to 10000 nM; at hPAD4 (read-out: hPAD4 RFMS IC50) it was 1000 to 5000 nM; at mPAD4 (setting [2]), 1000 to 10000 nM; on mPAD4 (read-out: mPAD4 RFMS IC50) it was 1000 to 5000 nM.

Turning to `COCCn1c(-c2cc3cccnc3n2CC2CC2)nc2cc(C(=O)N3CCC[C@@H](N)C3)cc(OC)c21` [Compound I-177], the IC50 at hPAD4 (setting [1]) was 1000 to 10000 nM; on hPAD4 (read-out: hPAD4 RFMS IC50), 1000 to 5000 nM; at mPAD4 (setting [2]), under 1000 nM; on mPAD4 (read-out: mPAD4 RFMS IC50), under 1000 nM.

On to `COCCn1c(-c2cc3cccnc3n2CC2CC2)nc2cc(C(=O)N3C[C@H]4CC[C@@H]3[C@@H]4N)cc(OC)c21` [Compound I-178], for which the IC50 at hPAD4 (setting [1]), on hPAD4 (read-out: hPAD4 RFMS IC50), on mPAD4 (setting [2]) and at mPAD4 (read-out: mPAD4 RFMS IC50) was under 1000 nM throughout.

On to `CCn1c(-c2nc3cc(C(=O)N4C[C@H]5CC[C@@H]4[C@@H]5N)cc(OC)c3n2CC2CC(F)(F)C2)cc2cccnc21` [Compound I-179], for which the IC50 at hPAD4 (setting [1]) is under 1000 nM; at hPAD4 (read-out: hPAD4 RFMS IC50), under 1000 nM; at mPAD4 (setting [2]), 1000 to 10000 nM; on mPAD4 (read-out: mPAD4 RFMS IC50), 1000 to 5000 nM.

`CCn1c(-c2nc3cc(C(=O)N4CCC[C@@H](N)C4)cc(OC)c3n2CC2CC(F)(F)C2)cc2cccnc21` [Compound I-180]: the IC50 at hPAD4 (setting [1]) was 1000 to 10000 nM; at hPAD4 (read-out: hPAD4 RFMS IC50) it was 1000 to 5000 nM; on mPAD4 (setting [2]) it was under 1000 nM; at mPAD4 (read-out: mPAD4 RFMS IC50), under 1000 nM.

In the case of `COc1cc(C(=O)N2C[C@H]3CC[C@@H]2[C@@H]3N)cc2nc(-c3cc4cccnc4n3CC3CC3)n(C[C@H]3C[C@@](C)(OC)C3)c12` [Compound I-181], the IC50 at hPAD4 (setting [1]), at hPAD4 (read-out: hPAD4 RFMS IC50), at mPAD4 (setting [2]) and on mPAD4 (read-out: mPAD4 RFMS IC50) was under 1000 nM each time.

As for `COc1cc(C(=O)N2CCC[C@@H](N)C2)cc2nc(-c3cc4cccnc4n3CC3CC3)n(C[C@H]3C[C@@](C)(OC)C3)c12` [Compound I-182], the IC50 at hPAD4 (setting [1]), on hPAD4 (read-out: hPAD4 RFMS IC50), at mPAD4 (setting [2]) and at mPAD4 (read-out: mPAD4 RFMS IC50) was under 1000 nM in each case.

For the compound `CCn1c(-c2nc3cc(C(=O)N4C[C@H]5CC[C@@H]4[C@@H]5N)cc(OC)c3n2C)cc2ccc(C(F)(F)F)nc21` [Compound I-183], the IC50 at hPAD4 (setting [1]), at hPAD4 (read-out: hPAD4 RFMS IC50), on mPAD4 (setting [2]) and on mPAD4 (read-out: mPAD4 RFMS IC50) was under 1000 nM each time.

For the compound `CCn1c(-c2nc3cc(C(=O)N4CCC[C@@H](N)C4)cc(OC)c3n2C)cc2ccc(C(F)(F)F)nc21` [Compound I-184], the IC50 at hPAD4 (setting [1]), at hPAD4 (read-out: hPAD4 RFMS IC50), on mPAD4 (setting [2]) and on mPAD4 (read-out: mPAD4 RFMS IC50) was under 1000 nM each time.

With `CCn1c(-c2nc3cc(C(=O)N4CCC[C@@H](N)C4)ccc3n2CCOC)cc2cccnc21` [Compound I-185], the IC50 on hPAD4 (setting [1]) is 1000 to 10000 nM; on hPAD4 (read-out: hPAD4 RFMS IC50), 5000 to 10000 nM; at mPAD4 (setting [2]) it was 10000 to 100000 nM; at mPAD4 (read-out: mPAD4 RFMS IC50) it was over 10000 nM.

As for `CCn1c(-c2nc3cc(C(=O)N4C[C@H]5CC[C@@H]4[C@@H]5N)ccc3n2CCOC)cc2cccnc21` [Compound I-186], the IC50 is 1000 to 10000 nM on hPAD4 (setting [1]), 1000 to 5000 nM at hPAD4 (read-out: hPAD4 RFMS IC50), 10000 to 100000 nM on mPAD4 (setting [2]) and over 10000 nM on mPAD4 (read-out: mPAD4 RFMS IC50).

For `COc1cc(C(=O)N2C[C@H]3CC4OC(=O)N[C@H]3[C@@H]42)cc2nc(-c3cc4cccnc4n3CC3CC3)n(C)c12` [Compound I-187, (1S,2R,8R)-10-{2-[1-(Cyclopropylmethyl)-1H-pyrrolo[2,3-b]pyridin-2-yl]-7-methoxy-1-methyl-1H-1,3-benzodiazole-5-carbonyl}-5-oxa-3,10-diazatricyclo[4.4.0.0^2,8]decan-4-one], the IC50 is 10000 to 100000 nM on hPAD4 (setting [1]), over 10000 nM at hPAD4 (read-out: hPAD4 RFMS IC50), 10000 to 100000 nM at mPAD4 (setting [2]) and over 10000 nM at mPAD4 (read-out: mPAD4 RFMS IC50).
